The results in this text go back to ChEMBL document CHEMBL2440075, “In vitro structure-activity relationships of aplysinopsin analogs and their in vivo evaluation in the chick anxiety-depression model” (Bioorg Med Chem, 2013).

pKi: −log10 of the molar value. Activity calls are given as the source filed them. No cut-off for these calls is given here.

In assay [1] the test system is Gallus gallus. Briefly: Effect on social seperation in chick anxiety-depression model assessed as attenuation of decline in distress vocalizations during depression-like phase at 5 mg/kg, ip 15 mins prior to behavioral testing measured after 45 to 60 mins. More on the design: dose 5 mg/kg. It counts as functional, organism-based.
Assay [2] concerns Gallus gallus. As to the kind of experiment: Effect on social seperation in chick anxiety-depression model assessed as attenuation of decline in distress vocalizations during depression-like phase at 5 mg/kg, ip 15 mins prior to behavioral testing measured after 30 to 45 mins. More on the design: dose 5 mg/kg. It counts as functional, organism-based.
Assay [3] deals with Gallus gallus. As to the kind of experiment: Effect on isolation-stressor in chick anxiety-depression model assessed as attenuation of decline in distress vocalizations during depression-like phase at 5 mg/kg, ip 15 mins prior to behavioral testing measured after 5 to 60 mins. It counts as functional, organism-based. Also noted: dose 5 mg/kg.
The subject of assay [4] is Gallus gallus. As to the kind of experiment: Effect on isolation-stressor in chick anxiety-depression model assessed as reduction in distress vocalizations during anxiety-like phase at 10 to 100 nM/kg, ip 15 mins prior to behavioral testing measured for 1 to 5 mins. It counts as functional, organism-based.
For assay [5], the target named is T1, 5-hydroxytryptamine receptor 2C (Homo sapiens, UniProt P28335).
T1 sequence (P28335 whole entry): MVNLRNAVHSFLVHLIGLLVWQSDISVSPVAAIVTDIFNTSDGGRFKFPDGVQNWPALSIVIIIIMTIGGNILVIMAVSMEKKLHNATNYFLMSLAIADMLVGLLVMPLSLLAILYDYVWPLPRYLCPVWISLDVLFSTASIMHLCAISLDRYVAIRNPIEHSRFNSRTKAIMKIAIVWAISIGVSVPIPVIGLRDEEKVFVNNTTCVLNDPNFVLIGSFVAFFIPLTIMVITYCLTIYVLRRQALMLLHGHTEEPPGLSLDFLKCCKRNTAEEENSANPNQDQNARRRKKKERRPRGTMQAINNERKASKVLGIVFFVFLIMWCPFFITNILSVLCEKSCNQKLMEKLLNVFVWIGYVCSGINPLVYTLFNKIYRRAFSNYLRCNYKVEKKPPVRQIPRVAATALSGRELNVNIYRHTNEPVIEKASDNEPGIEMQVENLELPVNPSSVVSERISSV
Briefly: Displacement of [3H]mesulergine from human recombinant 5HT2C receptor expressed in Flp-IN HEK cells. It counts as cell-based, HEK293.

The target in assay [6] is 5-hydroxytryptamine receptor 2A (Rattus norvegicus, UniProt P14842). As to the kind of experiment: Displacement of [3H]ketanserin from rat 5HT2A receptor stably expressed in 3T3 cells. It counts as cell-based.
5-hydroxytryptamine receptor 2A, sequence (P14842 whole entry): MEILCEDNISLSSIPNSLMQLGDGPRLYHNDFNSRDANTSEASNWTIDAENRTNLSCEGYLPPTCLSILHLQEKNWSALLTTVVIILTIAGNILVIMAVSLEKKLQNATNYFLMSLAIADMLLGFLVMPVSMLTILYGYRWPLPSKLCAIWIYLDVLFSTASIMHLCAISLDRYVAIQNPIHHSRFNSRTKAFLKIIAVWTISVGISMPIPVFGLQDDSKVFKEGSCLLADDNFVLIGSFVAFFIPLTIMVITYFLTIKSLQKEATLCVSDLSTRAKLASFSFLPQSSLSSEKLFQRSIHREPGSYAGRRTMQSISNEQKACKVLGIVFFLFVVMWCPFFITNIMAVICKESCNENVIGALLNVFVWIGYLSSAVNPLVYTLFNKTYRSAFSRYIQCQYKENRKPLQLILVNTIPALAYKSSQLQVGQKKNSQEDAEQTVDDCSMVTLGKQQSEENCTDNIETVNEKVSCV
In assay [7] the target is 5-hydroxytryptamine receptor 7 (Homo sapiens, UniProt P34969). Briefly: Displacement of [3H]LSD from human recombinant 5HT7 receptor stably expressed in HEK cells. Type of assay: cell-based, HEK293.
5-hydroxytryptamine receptor 7, sequence (P34969 whole entry): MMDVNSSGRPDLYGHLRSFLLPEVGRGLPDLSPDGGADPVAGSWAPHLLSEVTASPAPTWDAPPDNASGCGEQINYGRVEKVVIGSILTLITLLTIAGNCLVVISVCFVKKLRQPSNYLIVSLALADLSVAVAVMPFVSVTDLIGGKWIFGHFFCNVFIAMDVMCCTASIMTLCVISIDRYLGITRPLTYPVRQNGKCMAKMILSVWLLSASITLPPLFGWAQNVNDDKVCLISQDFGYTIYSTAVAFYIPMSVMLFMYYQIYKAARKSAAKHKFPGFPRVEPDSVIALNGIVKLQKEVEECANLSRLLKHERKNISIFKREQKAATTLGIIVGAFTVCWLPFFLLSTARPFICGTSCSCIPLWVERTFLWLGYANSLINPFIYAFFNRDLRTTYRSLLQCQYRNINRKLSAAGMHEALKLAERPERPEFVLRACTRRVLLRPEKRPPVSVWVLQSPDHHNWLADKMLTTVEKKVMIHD
For assay [8], the system named is Gallus gallus. Briefly: Effect on social seperation in chick anxiety-depression model assessed as attenuation of decline in distress vocalizations during depression-like phase at 10 to 100 nM/kg, ip 15 mins prior to behavioral testing measured after 30 to 45 mins. Type of assay: functional, organism-based.
Assay [9] addresses 5-hydroxytryptamine receptor 2B (Homo sapiens, UniProt P41595). Briefly: Displacement of [3H]LSD from human recombinant 5HT2B receptor stably expressed in HEK cells. Type of assay: cell-based, HEK293.
The subject of assay [10] is Gallus gallus. Briefly: Effect on social seperation in chick anxiety-depression model assessed as reduction in distress vocalizations during anxiety-like phase at 10 to 100 nM/kg, ip 15 mins prior to behavioral testing measured for 1 to 5 mins. Type of assay: functional, organism-based.
In assay [11] the test system is Gallus gallus. As to the kind of experiment: Effect on social seperation in chick anxiety-depression model assessed as attenuation of decline in distress vocalizations during depression-like phase at 30 nM/kg, ip 15 mins prior to behavioral testing measured after 45 to 60 mins. It counts as functional, organism-based.
In assay [12] the target is 5-hydroxytryptamine receptor 6 (Homo sapiens, UniProt P50406). As to the kind of experiment: Displacement of [3H]LSD from human recombinant 5HT6 receptor stably expressed in HEK cells. It counts as cell-based, HEK293.
5-hydroxytryptamine receptor 6, sequence (P50406 whole entry): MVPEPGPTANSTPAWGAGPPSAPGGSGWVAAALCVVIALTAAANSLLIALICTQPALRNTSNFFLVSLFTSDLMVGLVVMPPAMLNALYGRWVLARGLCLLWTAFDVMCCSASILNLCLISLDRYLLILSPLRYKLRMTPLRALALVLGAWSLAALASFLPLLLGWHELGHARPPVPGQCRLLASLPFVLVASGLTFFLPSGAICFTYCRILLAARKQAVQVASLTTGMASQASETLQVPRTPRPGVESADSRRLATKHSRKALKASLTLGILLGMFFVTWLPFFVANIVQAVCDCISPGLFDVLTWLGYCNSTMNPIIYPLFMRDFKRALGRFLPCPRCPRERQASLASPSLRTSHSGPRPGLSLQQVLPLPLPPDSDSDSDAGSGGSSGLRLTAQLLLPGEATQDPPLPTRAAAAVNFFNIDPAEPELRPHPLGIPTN
For assay [13], the system named is Gallus gallus. Briefly: Effect on isolation-stressor in chick anxiety-depression model assessed as attenuation of decline in distress vocalizations during depression-like phase at 30 nM/kg, ip 15 mins prior to behavioral testing measured after 5 to 60 mins. It counts as functional, organism-based.
The target in assay [14] is 5-hydroxytryptamine receptor 5A (Homo sapiens, UniProt P47898). As to the kind of experiment: Displacement of [3H]LSD from human recombinant 5HT5A receptor expressed in Flp-In CHO cells. It counts as cell-based.
5-hydroxytryptamine receptor 5A, sequence (P47898 whole entry): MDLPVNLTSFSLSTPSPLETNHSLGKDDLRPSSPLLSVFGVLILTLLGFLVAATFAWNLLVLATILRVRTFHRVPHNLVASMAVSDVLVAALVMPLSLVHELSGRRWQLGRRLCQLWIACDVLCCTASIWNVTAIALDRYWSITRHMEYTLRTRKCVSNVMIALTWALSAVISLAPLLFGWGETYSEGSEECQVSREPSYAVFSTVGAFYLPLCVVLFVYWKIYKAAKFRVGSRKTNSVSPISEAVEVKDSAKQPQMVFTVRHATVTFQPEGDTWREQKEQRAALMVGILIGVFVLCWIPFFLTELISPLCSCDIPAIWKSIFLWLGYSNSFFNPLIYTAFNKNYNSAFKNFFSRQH

5-hydroxytryptamine receptor 2B, sequence (P41595 whole entry): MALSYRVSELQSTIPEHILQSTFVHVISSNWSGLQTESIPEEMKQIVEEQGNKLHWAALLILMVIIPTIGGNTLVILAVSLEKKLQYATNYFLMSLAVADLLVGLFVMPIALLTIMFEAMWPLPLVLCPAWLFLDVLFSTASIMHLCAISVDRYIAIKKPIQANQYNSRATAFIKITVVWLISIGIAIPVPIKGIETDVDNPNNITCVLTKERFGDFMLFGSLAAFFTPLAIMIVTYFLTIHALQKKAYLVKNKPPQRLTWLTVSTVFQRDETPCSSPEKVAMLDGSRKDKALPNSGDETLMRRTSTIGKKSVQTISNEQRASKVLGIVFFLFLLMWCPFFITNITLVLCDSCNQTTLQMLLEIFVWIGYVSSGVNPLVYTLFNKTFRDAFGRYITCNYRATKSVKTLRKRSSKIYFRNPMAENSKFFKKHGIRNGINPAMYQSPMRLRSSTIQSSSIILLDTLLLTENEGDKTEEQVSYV

With `CN(C)CCCN1c2ccccc2CCc2ccccc21`, the outcome with Gallus gallus [1], with Gallus gallus [2] and with Gallus gallus [3] was Active.
On to `N=C1NC(=O)/C(=C\c2c[nH]c3ccc(Br)cc23)N1`, for which the outcome in the assay on Gallus gallus [4] and in the assay with Gallus gallus [8] was inactive. Further, the negative logarithm of the Ki (pKi) in [5] is 7.46; in [6], 7.24; in assay [7] it was 6.29; in assay [9], 7.29; in assay [12] it was 6.13; in assay [14], 7.05. In addition, the outcome with Gallus gallus [10], with Gallus gallus [11] and in the assay on Gallus gallus [13] was Active.
